Source: US10196381B2, “Benzimidazole-2-piperazine heterocyclic compound, pharmaceutical composition containing the same, preparation method and use thereof” (Shanghai Huilun Life Science & Technology Co., Ltd., priority 2013, dated 2019)

Molecular target: PARP-1 enzyme (Homo sapiens (Human), UniProt P09874)
Test: PARP enzyme activity assay (HT Universal Chemiluminescent PARP Assay Kit, histone-coated wells)
Assay type: biochemical
Conditions: for inhibition at 0.03 µM: read-out: Inhibition (%) at 30 nM; for inhibition at 0.1 µM: read-out: Inhibition (%) at 100 nM
Experimental: PARP is an enzyme responsible for post-translational modification, which may be activated by means of DNA damage. The process catalyzed by PARP in vivo is mainly NAD-dependent poly(ADP-ribosyl)ation, in which the substrates are mainly some nuclear proteins including PARP, one example of which is histone. In the present invention, the PARP activity is assayed by determining the poly(ADP-ribosyl)ation degree of histone coated in a 96-well plate in the presence of NAD, and the PARP activity under the action of a PARP inhibitor is correspondingly assayed, thereby evaluating the degree of inhibition of the compounds on PARP activity. Poly(ADP-ribosyl)ation of nuclear proteins is a post-translational modification occurred in response to DNA damage. PARP is the abbreviation of poly(ADP-ribose)polymerase, which catalyzes the attachment of poly(ADP-ribose) to an adjacent nuclear protein in the presence of NAD, thus eliciting a mechanism of DNA repair through base excision repair pathway. The level of biotin-labeled ADP-ribose binding to histone can be detected by using the HT Universal Chemiluminescent PARP Assay Kit commercially available from Trevigen Corp. […] HT Universal Chemiluminescent PARP Assay Kit with Histone-coated Strip Wells, commercially available from Trevigen (US), Catalog #: 4676-096-K. […] 4. The PARP enzyme was carefully diluted with the 1×PARP buffer just before use, the diluted enzyme solution should be used as quickly as possible and the remaining solution should be discarded. […] 2. […] 1. […] 2. […] 4. […] After washing, equal volume of the PeroxyGlow A and B solutions were uniformly mixed, 100 μl of the solution was added to each well, and the chemiluminescent signals were recorded on a plate reader immediately. The readout of each well is converted into the percent inhibition. […] Note: the readout of the positive control well is designated as 100% enzyme activity; the readout of the negative control well is designated as 0% enzyme activity; and the activity X refers to the readout from respective concentration of each sample.

Chain of PARP-1 enzyme (P09874 whole entry): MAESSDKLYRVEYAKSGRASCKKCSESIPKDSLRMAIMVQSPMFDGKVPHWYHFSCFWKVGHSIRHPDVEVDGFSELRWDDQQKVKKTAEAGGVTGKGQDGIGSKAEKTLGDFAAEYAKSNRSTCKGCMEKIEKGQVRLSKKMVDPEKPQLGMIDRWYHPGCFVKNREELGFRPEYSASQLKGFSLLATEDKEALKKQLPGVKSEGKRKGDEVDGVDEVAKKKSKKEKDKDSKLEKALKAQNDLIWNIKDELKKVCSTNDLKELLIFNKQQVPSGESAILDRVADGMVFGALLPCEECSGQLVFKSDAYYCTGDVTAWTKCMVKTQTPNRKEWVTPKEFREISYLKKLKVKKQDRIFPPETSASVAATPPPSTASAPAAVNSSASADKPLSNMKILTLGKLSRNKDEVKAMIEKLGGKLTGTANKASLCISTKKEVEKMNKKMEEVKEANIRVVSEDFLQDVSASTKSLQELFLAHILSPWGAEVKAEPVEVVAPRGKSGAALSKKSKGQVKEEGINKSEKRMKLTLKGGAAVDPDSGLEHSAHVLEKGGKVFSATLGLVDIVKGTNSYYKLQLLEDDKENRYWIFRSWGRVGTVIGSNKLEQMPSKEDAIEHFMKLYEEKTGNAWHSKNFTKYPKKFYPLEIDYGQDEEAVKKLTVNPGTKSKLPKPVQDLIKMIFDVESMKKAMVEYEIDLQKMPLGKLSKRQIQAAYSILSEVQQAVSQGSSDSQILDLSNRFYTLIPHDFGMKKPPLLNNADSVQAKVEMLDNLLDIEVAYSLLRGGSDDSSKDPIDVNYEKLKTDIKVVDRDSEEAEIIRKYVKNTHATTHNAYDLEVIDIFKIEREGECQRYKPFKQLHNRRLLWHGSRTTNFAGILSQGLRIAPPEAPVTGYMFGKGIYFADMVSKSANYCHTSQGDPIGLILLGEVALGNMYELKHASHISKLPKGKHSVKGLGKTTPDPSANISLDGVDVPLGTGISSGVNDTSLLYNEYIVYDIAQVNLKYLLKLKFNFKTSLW

SMILES	inhibition at 0.03 µM	inhibition at 0.1 µM
CCNc1cnc(N2CCN(c3nc4c(C(N)=O)cccc4[nH]3)CC2)nc1 [Compound (3), 2-(4-(5-ethylaminopyrimidin-2-yl)piperazin-1-yl)-1H-benzimidazole-4-carboxamide]	6%	13%
NC(=O)c1cccc2[nH]c(N3CCN(c4ncc(F)cn4)CC3)nc12 [Compound (2), 2-(4-(5-fluoropyrimidin-2-yl)piperazin-1-yl)-1H-benzimidazole-4-carboxamide]	42%	69%
NC(=O)c1cc(F)cc2[nH]c(N3CCN(c4cnc(C(=O)N5CCOCC5)cn4)CC3)nc12 [Compound (30), 6-fluoro-2-(4-(5-(morpholin-4-acyl)pyrazin-2-yl)piperazin-1-yl)-1H-benzimidazole-4-carboxamide]	78%	92%
NC(=O)c1cc(F)cc2[nH]c(N3CCN(c4ccncn4)CC3)nc12 [Compound (16), 6-fluoro-2-(4-(pyrimidin-4-yl)piperazin-1-yl)-1H-benzimidazole-4-carboxamide]	78%	91%
NC(=O)c1cc(F)cc2[nH]c(N3CCN(c4ccc(C(F)(F)F)nn4)CC3)nc12 [Compound (31), 6-fluoro-2-(4-(6-trifluoromethylpyridazin-3-yl)piperazin-1-yl)-1H-benzimidazole-4-carboxamide]	80%	95%
NC(=O)c1cccc2[nH]c(N3CCN(c4ncc(N)cn4)CC3)nc12 [Compound (6), 2-(4-(5-aminopyrimidin-2-yl)piperazin-1-yl)-1H-benzimidazole-4-carboxamide]	26%	54%
N#Cc1cnc(N2CCN(c3nc4c(C(N)=O)cc(F)cc4[nH]3)CC2)nc1 [Compound (19), 2-(4-(5-cyanopyrimidin-2-yl)piperazin-1-yl)-6-fluoro-1H-benzimidazole-4-carboxamide]	77%	93%
N#Cc1ncc(N2CCN(c3nc4c(C(N)=O)cc(F)cc4[nH]3)CC2)cn1 [Compound (38), 2-(4-(2-cyanopyrimidin-5-yl)piperazin-1-yl)-6-fluoro-1H-benzimidazole-4-carboxamide]	84%	95%
NC(=O)c1cc(F)cc2[nH]c(N3CCN(c4ccc(C(F)(F)F)cn4)CC3)nc12 [Compound (21), 6-fluoro-2-(4-(5-trifluoromethylpyridin-2-yl)piperazin-1-yl)-1H-benzimidazole-4-carboxamide]	32%	60%
NC(=O)c1cc(F)cc2[nH]c(N3CCN(c4cnc(C(=O)N5CCCC5)cn4)CC3)nc12 [Compound (29), 6-fluoro-2-(4-(5-(pyrrolin-1-acyl)pyrazin-2-yl)piperazin-1-yl)-1H-benzimidazole-4-carboxamide]	71%	88%
CN(C)C(=O)c1ccc(N2CCN(c3nc4c(C(N)=O)cc(F)cc4[nH]3)CC2)nc1 [Compound (18), 2-(4-(5-(dimethylcarbamoyl)pyridin-2-yl)piperazin-1-yl)-6-fluoro-1H-benzimidazole-4-carboxamide]	56%	77%
NC(=O)c1cc(F)cc2[nH]c(N3CCN(c4cnc(C(F)(F)F)nc4)CC3)nc12 [Compound (33), 6-fluoro-2-(4-(2-trifluoromethylpyrimidin-5-yl)piperazin-1-yl)-1H-benzimidazole-4-carboxamide]	88%	98%
N#Cc1cnc(N2CCN(c3nc4c(C(N)=O)cccc4[nH]3)CC2)nc1 [Compound (14), 2-(4-(5-cyanopyrimidin-2-yl)piperazin-1-yl)-1H-benzimidazole-4-carboxamide]	57%	78%
CNC(=O)c1ccc(N2CCN(c3nc4c(C(N)=O)cccc4[nH]3)CC2)nc1 [Compound (11), 2-(4-(5-methylcarbamoylpyridin-2-yl)piperazin-1-yl)-1H-benzimidazole-4-carboxamide]	59%	78%
NC(=O)c1cccc2[nH]c(N3CCN(c4cc(C(F)(F)F)ncn4)CC3)nc12 [Compound (10), 2-(4-(6-trifluoromethylpyrimidin-4-yl)piperazin-1-yl)-1H-benzimidazole-4-carboxamide]	38%	64%
NC(=O)c1cccc2[nH]c(N3CCN(c4ccnc(C(F)(F)F)c4)CC3)nc12 [Compound (13), 2-(4-(2-trifluoromethylpyridin-4-yl)piperazin-1-yl)-1H-benzimidazole-4-carboxamide]	43%	69%
